{
  "source": "ChEMBL document CHEMBL5726056",
  "about": "“2-oxo-3,4-dihydroquinolin-6-yl sulphonamide CPDS and their use as plant growth regulators” (2019)",
  "key": {"[1]": {"test": "(§1) PP2C Activity Assay: HAB1 and PYL proteins were expressed and purified as described in Park et al. ((2009) Science 324(5930):1068-1071), with minor modifications. To obtain GST-HAB1, the HAB1 cDNA was cloned into pGex-2T. Expression was conducted in BL21[DE3]pLysS host cells. Transformed cells were pre-cultured overnight, transferred to LB medium and cultured at 30° C. to culture A600 of ¿0.5.The culture was then cooled on ice and MnCl2 added to 4 mM and IPTG added to 0.3 mM. After 16 hours incubation at 15° C., cells were harvested and recombinant proteins were purified on glutathione agarose as described in Park et al. To obtain 6×His-PYL receptor fusion proteins, expression constructs previously described by Okamoto et al. 2013, (PNAS 110(29): 12132-12137) were used. ABA receptors were expressed and purified as described above.For the values shown in Table B5, PP2C activity assays using recombinant receptors and PP2Cs were carried out as follows: purified proteins were pre-incubated in 160 μl assay buffer containing 100 mM Tris-HCl-pH7.9, 100 mM NaCl, 3 μg bovine serum albumin, 0.1% 2-mercaptoethanol, 1 mM MnCl2 with ABA or agonists (compounds of the present invention) for 30 minutes at room temperature. […]"}, "[2]": {"test": "as §1", "remark": "listed apart in the source"}},
  "data": [
    {"smiles": "CCN1C(=O)CC(C)c2cc(NS(=O)(=O)Cc3ccc(C4CC4)cc3)ccc21", "note": "(configuration not stated)", "values": [
      {"measurement": "IC50", "setting": "[1]", "value": 101, "unit": "nM"},
      {"measurement": "IC50", "setting": "[2]", "value": 200, "unit": "nM"}
    ]}
  ]
}
